The text below walks through data of publication PMC5748856 (The Journal of Experimental Medicine, 2018).

Entries after “also recorded” stand apart in the source; their conditions may differ. Ends that are not written are not given here.

The target in one assay is purified HLA-A*02:01 (Homo sapiens, UniProt P04439, D140Y/D185E/D98H/E176V/E277Q/G131W/G231S/I119V/I121R/I166T/I218V/L300P/L318F/N151K/N90K/P208A/P217A/Q86G/Q94H/R138H/R169H/T345S). The note with it: for HLA-A*02:01 binding (in words): relative to H3.3K27M, cell-free binding assay, performed once (Fig. 4 A).
Another assay concerns the target HLA-A*02:03 (human). The experiment in a line: radioligand binding.

For RKSAPSTGGV [H3.3WT, reference compound], the 50% inhibitory concentration (IC50) against purified HLA-A*02:01 was above 38.7 µM. For RMSAPATGGV [A6], the “HLA-A*02:01 binding (in words)” value on purified HLA-A*02:01 is “abrogated; also recorded: diminished”.

XMSAPSTGGV [Cit H3.3]: at purified HLA-A*02:01, the “HLA-A*02:01 binding (in words)” value is recorded as “partially retains its affinity”.

RMSAPSTGGV [H3.3K27M_(26–35) peptide] registered an IC50 with HLA-A*02:03 (human) of 747 nM.
